According to paper PMC6669903 (Neuron, 2019):

Legend:
Tiam1/CaMKII complex = type: cell-based; conditions: bath application (AP5, KN-93) or cotransfection (CaMKIIN)
[1] = system: dendritic spines of CA1 pyramidal neurons in hippocampal organotypic slice cultures; test: structural LTP; type: cell-based, rat
Rac1 = Rac1 activity in spines by FRET-FLIM sensor during sLTP; type: cell-based, rat; conditions: change in lifetime of GFP-Rac1 in stimulated spines; uncaging 0.5 Hz
[2] = system: Tiam1 phosphorylation by CaMKII in neurons in dissociated culture; test: Tiam1 phosphorylation after chemical LTP, Phos-tag SDS-PAGE; type: cell-based, rat; conditions: KN-93 10 µM; glycine 200 µM for 10 min

N[C@H](CCCP(=O)(O)O)C(=O)O [AP5, D-(−)-2-Amino-5-phosphonopentanoic acid]
effect on Tiam1/CaMKII interaction after sLTP induction (Tiam1/CaMKII complex): blocked

O=c1cc(CN2CCOCC2)occ1OCCCCCSc1ccnc2cc(C(F)(F)F)ccc12 [EHT1864]
effect on established sLTP, drug added 5 min after induction ([1]; applied 5 min after sLTP induction): effectively blocked sLTP
effect on established sLTP, drug added 15 min after induction ([1]; applied 15 min after sLTP induction): effectively blocked sLTP
effect on sLTP, drug added before induction ([1]; applied 30 min before sLTP induction, spines visualized by untagged GFP): effectively inhibited sLTP

COc1ccc(S(=O)(=O)N(CCO)c2ccccc2CN(C)C/C=C/c2ccc(Cl)cc2)cc1 [KN-93]
effect on Rac1 activation during sLTP (Rac1): effectively blocked the activation of Rac1
effect on Tiam1/CaMKII interaction after sLTP induction (Tiam1/CaMKII complex): blocked
effect on persistent Tiam1 phosphorylation after chemical LTP [2]: blocked
